Consider ten compounds from US20220081444A1, “6,7-DIHYDRO-4H-PYRAZOLO[1,5-A]PYRAZINE INDOLE-2-CARBOXAMIDES ACTIVE AGAINST THE HEPATITIS B VIRUS (HBV)” (AiCuris GmbH & Co. KG, priority 2018, published 2022).

Structures can show the parent of a compound that is named as a salt. Where two headings read alike, the source gives them in different places.

The subject of series [1] is HepAD38 cells. Briefly: Cell viability assay (AlamarBlue cytotoxicity). The settings on record: HepAD38 cells in the presence of 0.3 μg/ml tetracycline, six days incubation. (Resazurin is reduced to fluorescent resorufin, in cell work by metabolically active cells.)
In series [2] the test system is HBV. Conditions: read-out: Cell Activity (EC50).
Series [3] is described as follows: in vitro. The settings on record: human.
The mark [4] stands for this setting: Hepatitis B virus, HePAD38, 144 h.

The term EC50 denotes the midpoint of the concentration-response curve. As for “3-yl)methyl]-4H,5H, 6H,7H-pyrazolo[1,5-a]pyrazin-2-amine [Example 25]”, in series [1], the CC50 was > 10000 nM. The 50% effective concentration (EC50) in series [2] (HBV DNA in HepAD38 supernatant at day 6, qPCR) was < 1000 nM. Turning to `CCc1cc(F)cc2[nH]c(C(=O)N3CCn4nc(NCC5CCOC5)cc4C3)cc12` (stereo not drawn) [Example 29, 5-(4-ethyl-6-fluoro-1H-indole-2-carbonyl)-N-[(oxolan-3-yl)methyl]-4H,5H,6H,7H-pyrazolo[1,5-a]pyrazin-2-amine], in series [3], the CC50 was > 10000 nM. Besides, the EC50 in series [2] (setting [4]) was < 1000 nM. On to `CC1(S(=O)(=O)Nc2cc3n(n2)CCN(C(=O)c2cc4ccccc4[nH]2)C3)CC1` [Example 44, N-[5-(1H-indole-2-carbonyl)-4H,5H,6H,7H-pyrazolo[1,5-a]pyrazin-2-yl]-1-methylcyclopropane-1-sulfonamide], for which the CC50 in series [3] is > 10000 nM. In addition, the EC50 in series [2] (setting [4]) was < 1000 nM. Turning to `O=C(Nc1cc2n(n1)CCN(C(=O)c1cc3ccccc3[nH]1)C2)C1CC2CC1CN2` (stereo not drawn) [Example 82, N-[5-(1H-indole-2-carbonyl)-4H,5H,6H,7H-pyrazolo[1,5-a]pyrazin-2-yl]-2-azabicyclo[2.2.1]heptane-5-carboxamide dihydrochloride], the CC50 in series [3] is > 10000 nM. Further, the EC50 in series [2] (setting [4]) was in the range of 1000 to 10000 nM. Taken in the same sequence, the figures for `O=C(Nc1cc2n(n1)CCN(C(=O)c1cc3ccccc3[nH]1)C2)[C@H]1CCNC[C@@H]1F` [Example 86, (3R,4R)-3-fluoro-N-[5-(1H-indole-2-carbonyl)-4H,5H,6H,7H-pyrazolo[1,5-a]pyrazin-2-yl]piperidine-4-carboxamide dihydrochloride] were > 10000 nM and < 1000 nM. On to `O=C(c1cc2ccccc2[nH]1)N1CCn2nc(NC3(CO)CCC3)cc2C1` [Example 90, (1-{[5-(1H-indole-2-carbonyl)-4H,5H,6H,7H-pyrazolo[1,5-a]pyrazin-2-yl]amino}cyclobutyl)methanol], for which, in series [2] (setting [4]), the EC50 is < 1000 nM. With `O=C(c1cc2ccccc2[nH]1)N1CCn2nc(N[C@H]3C[C@@H](O)C3)cc2C1` [Example 91, (1s,3s)-3-{[5-(1H-indole-2-carbonyl)-4H,5H,6H,7H-pyrazolo[1,5-a]pyrazin-2-yl]amino}cyclobutan-1-ol], the EC50 in series [2] (setting [4]) was < 1000 nM. As to `O=C(c1cc2ccccc2[nH]1)N1CCn2nc(NC3(CO)CC3)cc2C1` [Example 92, (1-{[5-(1H-indole-2-carbonyl)-4H,5H,6H,7H-pyrazolo[1,5-a]pyrazin-2-yl]amino}cyclopropyl)methanol], the EC50 in series [2] (setting [4]) is < 1000 nM. As to `CCc1cccc2[nH]c(C(=O)N3CCn4nc(NCC5(O)CCC5)cc4C3)cc12` [Example 93, 1-({[5-(4-ethyl-1H-indole-2-carbonyl)-4H,5H,6H,7H-pyrazolo[1,5-a]pyrazin-2-yl]amino}methyl)cyclobutan-1-ol], in series [2] (setting [4]), the EC50 was < 1000 nM.

With `COC1(CNc2cc3n(n2)CCN(C(=O)c2cc4ccccc4[nH]2)C3)CCOC1` (stereo not drawn) [Example 94, 5-(1H-indole-2-carbonyl)-N-[(3-methoxyoxolan-3-yl)methyl]-4H,5H,6H,7H-pyrazolo[1,5-a]pyrazin-2-amine], the EC50 in series [2] (setting [4]) was < 1000 nM.
